Data as given in ChEMBL document CHEMBL3352029, “Ring fusion strategy for the synthesis of anthra[2,3-d]oxazole-2-thione-5,10-dione homologues as DNA topoisomerase inhibitors and as antitumor agents” (Eur J Med Chem, 2014).
The source made the active and inactive calls. The rule behind the calls is not given here.

How the values were obtained:
[1] = tested on: SF-539; assay: Cytotoxicity against human SF539 cells assessed as cell growth level at 10 uM after 48 hrs by sulforhodamine B assay; assay type: functional
[2] = tested on: HOP-92; assay: Cytotoxicity against human HOP92 cells assessed as cell growth level at 10 uM after 48 hrs by sulforhodamine B assay; assay type: functional
[3] = tested on: CCRF-CEM; assay: Cytotoxicity against human CCRF-CEM cells assessed as cell growth level at 10 uM after 48 hrs by sulforhodamine B assay; assay type: functional
[4] = tested on: NCI-H522; assay: Cytotoxicity against human NCI-H522 cells assessed as cell growth level at 10 uM after 48 hrs by sulforhodamine B assay; assay type: functional
[5] = Cytotoxicity against human PC3 cells assessed as cell growth level at 10 uM after 48 hrs by sulforhodamine B assay; assay type: functional, PC-3
[6] = Cytotoxicity against human Hs 578T cells assessed as cell growth level at 10 uM after 48 hrs by sulforhodamine B assay; assay type: functional
[7] = tested on: A498; assay: Cytotoxicity against human A498 cells assessed as cell growth level at 10 uM after 48 hrs by sulforhodamine B assay; assay type: functional
[8] = tested on: SF-268; assay: Cytotoxicity against human SF268 cells assessed as cell growth level at 10 uM after 48 hrs by sulforhodamine B assay; assay type: functional
[9] = tested on: NCI-H460; assay: Cytotoxicity against human NCI-H460 cells assessed as cell growth level at 10 uM after 48 hrs by sulforhodamine B assay; assay type: functional
[10] = tested on: CAKI-1; assay: Cytotoxicity against human CAKI-1 cells assessed as cell growth level at 10 uM after 48 hrs by sulforhodamine B assay; assay type: functional
[11] = tested on: SF-295; assay: Cytotoxicity against human SF295 cells assessed as cell growth level at 10 uM after 48 hrs by sulforhodamine B assay; assay type: functional
[12] = tested on: HT-29; assay: Cytotoxicity against human HT-29 cells assessed as cell growth level at 10 uM after 48 hrs by sulforhodamine B assay; assay type: functional
[13] = tested on: MDA-MB-468; assay: Cytotoxicity against human MDA-MB-468 cells assessed as cell growth level at 10 uM after 48 hrs by sulforhodamine B assay; assay type: functional
[14] = target: T1, DNA topoisomerase 1 (Homo sapiens) (UniProt P11387); assay: Inhibition of human recombinant DNA topoisomerase 1 assessed as reduction in relaxation of supercoiled pHOT DNA at 6.25 to 25 uM incubated for 45 mins by ethidium bromide staining based gel electrophoresis
T1 sequence (whole entry): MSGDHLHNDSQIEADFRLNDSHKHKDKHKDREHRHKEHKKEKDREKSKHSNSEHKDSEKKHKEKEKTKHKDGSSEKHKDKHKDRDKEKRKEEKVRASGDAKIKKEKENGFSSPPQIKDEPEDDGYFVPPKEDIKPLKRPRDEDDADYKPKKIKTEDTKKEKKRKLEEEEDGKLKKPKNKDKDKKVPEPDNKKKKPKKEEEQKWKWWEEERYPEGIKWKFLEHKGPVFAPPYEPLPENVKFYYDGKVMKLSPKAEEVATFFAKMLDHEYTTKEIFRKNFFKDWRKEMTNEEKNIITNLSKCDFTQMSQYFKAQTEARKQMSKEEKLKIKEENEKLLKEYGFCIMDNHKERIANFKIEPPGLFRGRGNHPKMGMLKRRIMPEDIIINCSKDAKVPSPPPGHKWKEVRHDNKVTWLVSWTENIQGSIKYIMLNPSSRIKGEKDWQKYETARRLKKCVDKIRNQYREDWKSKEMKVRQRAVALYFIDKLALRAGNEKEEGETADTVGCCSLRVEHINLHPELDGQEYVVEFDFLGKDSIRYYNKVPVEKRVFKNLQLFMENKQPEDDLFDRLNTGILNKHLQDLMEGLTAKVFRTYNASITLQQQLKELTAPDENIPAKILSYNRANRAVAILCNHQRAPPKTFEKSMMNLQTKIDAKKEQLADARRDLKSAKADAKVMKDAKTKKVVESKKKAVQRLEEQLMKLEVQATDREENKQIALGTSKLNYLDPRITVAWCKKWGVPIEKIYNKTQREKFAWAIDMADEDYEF

[15] = target: T1, DNA topoisomerase 1 (Homo sapiens); assay: Inhibition of human recombinant DNA topoisomerase 1 assessed as reduction in relaxation of supercoiled pHOT DNA at 25 to 50 uM incubated for 45 mins by ethidium bromide staining based gel electrophoresis

With `CCSc1nc2cc3c(cc2o1)C(=O)c1ccccc1C3=O` the Activity [1] was 94.61%, the Activity [2] was 72.67% and the Activity [3] was 90.48%. For the same molecule, the Activity [4] was 80.08%, the Activity [5] was 84.23% and the Activity [6] was 81.15%. The Activity [7] was 80.69%, the Activity [8] was 102.22% and the Activity [9] was 100.33%. For the same molecule, the Activity [10] was 93.49%, the Activity [11] was 92.06% and the Activity [12] was 89.08%. It also gave an Activity [13] of 88.73%.

Molecule `CN(C)CCCSc1nc2cc3c(cc2o1)C(=O)c1ccccc1C3=O` has an Activity [1] of 87.3%, an Activity [2] of 34.36% and an Activity [3] of 55.33%. The Activity [4] was 70.64%, the Activity [5] was 85.96% and the Activity [6] was 91.54%. For the same molecule, the Activity [7] was 72.09%, the Activity [8] was 102.39% and the Activity [9] was 60.58%. For the same molecule, the Activity [10] was 73.88%, the Activity [11] was 92.69% and the inhibition [14] was “Dose-dependent effect”. For the same molecule, the Activity [12] was 64.03%, the Activity [13] was 88.6% and the inhibition [15] was “Active”.

With `O=C1c2ccccc2C(=O)c2cc3oc(SCc4ccc(F)cc4)nc3cc21` the Activity [1] was 94.71%, the Activity [2] was 74.13% and the Activity [3] was 86.28%. The Activity [4] was 80.08%, the Activity [5] was 88.52% and the Activity [6] was 95.47%. The Activity [7] was 94.5%, the Activity [8] was 103.49% and the Activity [9] was 84.05%. The Activity [10] was 90.54%, the Activity [11] was 86.95% and the Activity [12] was 91.18%. For the same molecule, the Activity [13] was 90.68%.
